Experiment [1] has as its target Mitogen-activated protein kinase 14 (Homo sapiens) (UniProt Q16539). Description: Inhibition of human p38alpha assessed as remaining enzyme activity at 1 uM.
Experiment [2] addresses T1, Homeodomain-interacting protein kinase 4 (Homo sapiens) (UniProt Q8NE63).
T1 sequence (whole entry): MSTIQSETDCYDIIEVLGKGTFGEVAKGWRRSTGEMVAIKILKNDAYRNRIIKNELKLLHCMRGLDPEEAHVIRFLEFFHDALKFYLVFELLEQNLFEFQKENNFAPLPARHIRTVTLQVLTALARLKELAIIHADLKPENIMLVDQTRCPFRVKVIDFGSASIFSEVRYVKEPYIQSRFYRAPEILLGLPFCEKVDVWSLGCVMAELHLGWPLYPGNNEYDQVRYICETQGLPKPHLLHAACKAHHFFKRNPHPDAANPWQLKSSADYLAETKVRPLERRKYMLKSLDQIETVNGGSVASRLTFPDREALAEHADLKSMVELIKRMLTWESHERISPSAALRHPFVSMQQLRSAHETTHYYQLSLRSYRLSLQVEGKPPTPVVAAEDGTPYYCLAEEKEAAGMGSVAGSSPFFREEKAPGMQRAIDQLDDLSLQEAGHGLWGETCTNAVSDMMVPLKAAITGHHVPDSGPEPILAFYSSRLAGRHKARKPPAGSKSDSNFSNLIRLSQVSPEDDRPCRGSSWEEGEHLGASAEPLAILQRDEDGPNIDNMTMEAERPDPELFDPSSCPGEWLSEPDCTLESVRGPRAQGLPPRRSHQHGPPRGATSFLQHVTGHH
Put plainly: Inhibition of human HIPK4 assessed as remaining enzyme activity at 1 uM.

The target in experiment [3] is T2, Ephrin type-A receptor 8 (Homo sapiens) (UniProt P29322).
T2 sequence (whole entry): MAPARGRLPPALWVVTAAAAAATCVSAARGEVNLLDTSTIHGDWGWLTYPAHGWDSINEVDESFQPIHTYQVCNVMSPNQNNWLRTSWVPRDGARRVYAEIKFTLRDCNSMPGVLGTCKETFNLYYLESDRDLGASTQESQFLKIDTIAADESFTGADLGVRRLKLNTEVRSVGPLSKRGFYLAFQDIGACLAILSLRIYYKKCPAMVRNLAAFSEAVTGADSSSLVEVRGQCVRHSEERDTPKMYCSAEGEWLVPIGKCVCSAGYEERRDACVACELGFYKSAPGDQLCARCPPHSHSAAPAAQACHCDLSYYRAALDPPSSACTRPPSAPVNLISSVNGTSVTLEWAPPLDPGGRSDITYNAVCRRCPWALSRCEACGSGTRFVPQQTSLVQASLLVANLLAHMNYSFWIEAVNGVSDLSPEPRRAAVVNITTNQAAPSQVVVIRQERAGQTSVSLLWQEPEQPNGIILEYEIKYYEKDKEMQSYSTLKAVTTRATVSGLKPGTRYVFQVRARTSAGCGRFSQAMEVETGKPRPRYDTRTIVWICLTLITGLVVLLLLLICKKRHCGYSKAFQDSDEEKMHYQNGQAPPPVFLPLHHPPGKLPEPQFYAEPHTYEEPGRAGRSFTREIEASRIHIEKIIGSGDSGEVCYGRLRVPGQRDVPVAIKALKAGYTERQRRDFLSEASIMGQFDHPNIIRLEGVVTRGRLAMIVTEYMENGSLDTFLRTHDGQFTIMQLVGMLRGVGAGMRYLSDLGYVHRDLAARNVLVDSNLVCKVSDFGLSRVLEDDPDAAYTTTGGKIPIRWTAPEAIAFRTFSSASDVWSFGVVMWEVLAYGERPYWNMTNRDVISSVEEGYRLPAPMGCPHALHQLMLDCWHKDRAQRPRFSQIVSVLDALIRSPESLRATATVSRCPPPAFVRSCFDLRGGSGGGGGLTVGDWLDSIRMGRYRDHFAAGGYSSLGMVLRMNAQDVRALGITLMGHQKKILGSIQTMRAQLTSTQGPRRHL
Description: Inhibition of human EphA8 assessed as remaining enzyme activity at 1 uM.

Experiment [4] concerns the target Macrophage colony-stimulating factor 1 receptor (Homo sapiens) (UniProt P07333). Description: Inhibition of human FMS assessed as remaining enzyme activity at 1 uM.
Experiment [5] has as its target Epithelial discoidin domain-containing receptor 1 (Homo sapiens) (UniProt Q08345). Description: Inhibition of human DDR1 assessed as remaining enzyme activity at 1 uM.
The target in experiment [6] is Homeodomain-interacting protein kinase 3 (Homo sapiens) (UniProt Q9H422). Description: Inhibition of human HIPK3 assessed as remaining enzyme activity at 1 uM.
The target of experiment [7] is Serine/threonine-protein kinase 10 (Homo sapiens) (UniProt O94804). Description: Inhibition of human LOK assessed as remaining enzyme activity at 1 uM.
The target of experiment [8] is Serine/threonine-protein kinase TAO1 (Homo sapiens) (UniProt Q7L7X3). Put plainly: Inhibition of human TAO1 assessed as remaining enzyme activity at 1 uM.
The target in experiment [9] is Cyclin-dependent kinase-like 2 (Homo sapiens) (UniProt Q92772). Put plainly: Inhibition of human CDKL2 assessed as remaining enzyme activity at 1 uM.
Experiment [10] concerns the target Mitogen-activated protein kinase kinase kinase 20 (Homo sapiens) (UniProt Q9NYL2). Description: Inhibition of human ZAK assessed as remaining enzyme activity at 0.1 uM.
The target of experiment [11] is BDNF/NT-3 growth factors receptor (Homo sapiens) (UniProt Q16620). Description: Inhibition of human TRKB assessed as remaining enzyme activity at 0.1 uM.
The target of experiment [12] is NT-3 growth factor receptor (Homo sapiens) (UniProt Q16288). Description: Inhibition of human TRKC assessed as remaining enzyme activity at 0.1 uM.
Experiment [13] addresses Tyrosine-protein kinase Lyn (Homo sapiens) (UniProt P07948). Put plainly: Inhibition of human LYN assessed as remaining enzyme activity at 0.1 uM.
Experiment [14] deals with Tyrosine-protein kinase FRK (Homo sapiens) (UniProt P42685). Description: Inhibition of human PTK5 assessed as remaining enzyme activity at 0.1 uM.
Experiment [15] addresses Serine/threonine-protein kinase B-raf (Homo sapiens) (UniProt P15056). Description: Inhibition of human B-Raf assessed as remaining enzyme activity at 0.1 uM.
Experiment [16] deals with RAF proto-oncogene serine/threonine-protein kinase (Homo sapiens) (UniProt P04049). Put plainly: Inhibition of human C-Raf assessed as remaining enzyme activity at 0.1 uM.
The target of experiment [17] is Vascular endothelial growth factor receptor 2 (Homo sapiens) (UniProt P35968). Put plainly: Inhibition of human VEGFR2 assessed as remaining enzyme activity at 0.01 uM.
Experiment [18] deals with Mitogen-activated protein kinase kinase kinase 20 (Homo sapiens) (UniProt Q9NYL2). Description: Inhibition of human ZAK assessed as remaining enzyme activity at 0.01 uM.
The target of experiment [19] is NT-3 growth factor receptor (Homo sapiens) (UniProt Q16288). Description: Inhibition of human TRKC assessed as remaining enzyme activity at 0.01 uM.
For experiment [20], the target named is Tyrosine-protein kinase FRK (Homo sapiens) (UniProt P42685). Put plainly: Inhibition of human PTK5 assessed as remaining enzyme activity at 0.01 uM.
For experiment [21], the target named is Ephrin type-A receptor 2 (Homo sapiens) (UniProt P29317). Description: Inhibition of human EphA2 assessed as remaining enzyme activity at 0.01 uM.
The target in experiment [22] is Serine/threonine-protein kinase B-raf (Homo sapiens) (UniProt P15056). Description: Inhibition of human B-Raf assessed as remaining enzyme activity at 0.01 uM.
Experiment [23] has as its target RAF proto-oncogene serine/threonine-protein kinase (Homo sapiens) (UniProt P04049). Put plainly: Inhibition of human C-Raf assessed as remaining enzyme activity at 0.01 uM.

SMILES strings stand for the structures.

Sequence of Mitogen-activated protein kinase kinase kinase 20 (Homo sapiens) (Q9NYL2 2-800 limits assumed): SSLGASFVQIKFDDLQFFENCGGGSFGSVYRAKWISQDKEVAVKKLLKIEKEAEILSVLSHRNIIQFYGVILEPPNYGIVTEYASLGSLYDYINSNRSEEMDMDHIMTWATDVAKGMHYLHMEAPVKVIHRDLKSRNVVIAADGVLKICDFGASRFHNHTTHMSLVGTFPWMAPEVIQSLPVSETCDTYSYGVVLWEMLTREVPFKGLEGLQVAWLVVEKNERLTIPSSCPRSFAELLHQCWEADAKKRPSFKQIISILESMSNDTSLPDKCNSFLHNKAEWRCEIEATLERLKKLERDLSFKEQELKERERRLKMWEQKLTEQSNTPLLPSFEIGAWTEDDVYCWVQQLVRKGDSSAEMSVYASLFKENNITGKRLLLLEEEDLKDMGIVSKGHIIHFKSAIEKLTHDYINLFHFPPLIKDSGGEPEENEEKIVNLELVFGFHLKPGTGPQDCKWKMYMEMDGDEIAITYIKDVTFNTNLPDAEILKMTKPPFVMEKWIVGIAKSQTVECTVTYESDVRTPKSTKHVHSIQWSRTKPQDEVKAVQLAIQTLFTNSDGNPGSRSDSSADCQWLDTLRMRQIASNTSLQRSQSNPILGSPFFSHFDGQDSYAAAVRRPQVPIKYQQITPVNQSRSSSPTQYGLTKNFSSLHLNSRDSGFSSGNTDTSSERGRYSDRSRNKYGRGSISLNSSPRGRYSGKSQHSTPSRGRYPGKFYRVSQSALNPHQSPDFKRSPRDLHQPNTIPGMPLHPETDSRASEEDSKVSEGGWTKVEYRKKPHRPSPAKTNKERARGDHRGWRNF
Sequence of NT-3 growth factor receptor (Homo sapiens) (Q16288 32-839 limits assumed): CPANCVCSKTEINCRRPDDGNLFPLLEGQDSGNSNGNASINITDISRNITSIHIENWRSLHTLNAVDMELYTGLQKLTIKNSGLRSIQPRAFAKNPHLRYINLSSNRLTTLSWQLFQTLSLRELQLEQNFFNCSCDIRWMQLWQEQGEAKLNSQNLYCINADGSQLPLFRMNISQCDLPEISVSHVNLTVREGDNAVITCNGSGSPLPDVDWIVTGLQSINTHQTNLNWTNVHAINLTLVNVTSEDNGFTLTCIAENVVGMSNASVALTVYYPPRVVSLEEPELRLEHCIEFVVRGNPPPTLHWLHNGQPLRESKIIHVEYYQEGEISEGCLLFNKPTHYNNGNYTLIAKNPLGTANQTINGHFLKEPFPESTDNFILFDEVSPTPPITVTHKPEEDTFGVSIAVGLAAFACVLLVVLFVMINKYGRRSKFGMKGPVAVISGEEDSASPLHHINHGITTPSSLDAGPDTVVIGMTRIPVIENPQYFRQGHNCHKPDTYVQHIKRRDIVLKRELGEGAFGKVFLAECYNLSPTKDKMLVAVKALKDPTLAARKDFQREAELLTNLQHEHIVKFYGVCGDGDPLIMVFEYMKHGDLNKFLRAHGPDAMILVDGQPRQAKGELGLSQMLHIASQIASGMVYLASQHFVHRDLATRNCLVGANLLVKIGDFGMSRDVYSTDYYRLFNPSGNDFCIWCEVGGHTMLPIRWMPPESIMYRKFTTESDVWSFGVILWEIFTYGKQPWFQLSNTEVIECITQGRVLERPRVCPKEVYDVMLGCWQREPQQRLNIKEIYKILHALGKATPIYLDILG
Sequence of Serine/threonine-protein kinase B-raf (Homo sapiens) (P15056 whole entry): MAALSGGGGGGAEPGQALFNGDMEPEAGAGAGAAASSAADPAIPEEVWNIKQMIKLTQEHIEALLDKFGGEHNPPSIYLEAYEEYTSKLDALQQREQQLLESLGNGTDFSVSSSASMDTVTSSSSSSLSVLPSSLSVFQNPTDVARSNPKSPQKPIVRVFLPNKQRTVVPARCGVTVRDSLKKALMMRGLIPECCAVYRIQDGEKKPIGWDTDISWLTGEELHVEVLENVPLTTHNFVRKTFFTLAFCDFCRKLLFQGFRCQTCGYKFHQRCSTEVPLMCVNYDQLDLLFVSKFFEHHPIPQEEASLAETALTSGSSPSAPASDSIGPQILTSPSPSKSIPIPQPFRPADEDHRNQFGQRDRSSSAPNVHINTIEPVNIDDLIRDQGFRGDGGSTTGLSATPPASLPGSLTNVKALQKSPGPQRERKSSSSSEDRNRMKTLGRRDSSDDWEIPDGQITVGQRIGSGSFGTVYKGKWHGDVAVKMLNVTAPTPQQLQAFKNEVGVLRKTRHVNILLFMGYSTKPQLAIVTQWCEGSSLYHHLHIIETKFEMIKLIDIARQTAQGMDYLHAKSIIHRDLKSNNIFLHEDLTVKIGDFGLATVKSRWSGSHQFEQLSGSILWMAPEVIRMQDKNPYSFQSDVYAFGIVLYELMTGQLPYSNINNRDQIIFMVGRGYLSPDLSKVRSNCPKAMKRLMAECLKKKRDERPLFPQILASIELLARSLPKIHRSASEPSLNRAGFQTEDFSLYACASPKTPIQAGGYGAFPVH
Sequence of RAF proto-oncogene serine/threonine-protein kinase (Homo sapiens) (P04049 whole entry): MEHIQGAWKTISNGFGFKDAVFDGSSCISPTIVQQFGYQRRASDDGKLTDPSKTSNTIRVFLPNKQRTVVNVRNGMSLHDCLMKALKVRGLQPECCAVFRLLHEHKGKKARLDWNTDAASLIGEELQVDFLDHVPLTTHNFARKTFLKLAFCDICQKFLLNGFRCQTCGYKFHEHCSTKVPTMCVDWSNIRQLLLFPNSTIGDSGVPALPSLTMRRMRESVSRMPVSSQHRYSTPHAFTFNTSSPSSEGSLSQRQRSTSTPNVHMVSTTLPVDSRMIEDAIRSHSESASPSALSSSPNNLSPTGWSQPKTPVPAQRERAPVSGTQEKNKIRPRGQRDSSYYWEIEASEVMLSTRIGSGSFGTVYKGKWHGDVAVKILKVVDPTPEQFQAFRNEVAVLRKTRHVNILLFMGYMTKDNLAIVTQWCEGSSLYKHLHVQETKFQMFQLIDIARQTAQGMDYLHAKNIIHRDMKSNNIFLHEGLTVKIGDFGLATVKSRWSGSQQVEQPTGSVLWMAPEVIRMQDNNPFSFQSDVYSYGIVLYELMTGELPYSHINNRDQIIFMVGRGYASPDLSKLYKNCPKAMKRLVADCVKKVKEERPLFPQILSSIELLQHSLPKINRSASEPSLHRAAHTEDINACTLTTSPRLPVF
Sequence of Tyrosine-protein kinase FRK (Homo sapiens) (P42685 whole entry): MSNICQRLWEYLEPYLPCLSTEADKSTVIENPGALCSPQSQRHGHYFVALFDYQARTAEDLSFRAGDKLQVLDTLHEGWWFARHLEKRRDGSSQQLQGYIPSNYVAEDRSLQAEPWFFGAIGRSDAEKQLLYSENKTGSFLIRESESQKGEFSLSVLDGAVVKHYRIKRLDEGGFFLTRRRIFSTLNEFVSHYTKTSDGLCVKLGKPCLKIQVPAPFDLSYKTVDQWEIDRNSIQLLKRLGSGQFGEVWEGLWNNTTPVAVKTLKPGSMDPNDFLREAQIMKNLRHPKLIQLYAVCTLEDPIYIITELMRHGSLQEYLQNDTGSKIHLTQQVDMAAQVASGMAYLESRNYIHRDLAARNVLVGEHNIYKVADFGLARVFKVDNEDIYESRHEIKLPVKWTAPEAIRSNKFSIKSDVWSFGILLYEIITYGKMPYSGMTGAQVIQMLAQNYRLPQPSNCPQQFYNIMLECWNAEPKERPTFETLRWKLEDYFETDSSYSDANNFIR
Sequence of Macrophage colony-stimulating factor 1 receptor (Homo sapiens) (P07333 whole entry, the tested form may be a part): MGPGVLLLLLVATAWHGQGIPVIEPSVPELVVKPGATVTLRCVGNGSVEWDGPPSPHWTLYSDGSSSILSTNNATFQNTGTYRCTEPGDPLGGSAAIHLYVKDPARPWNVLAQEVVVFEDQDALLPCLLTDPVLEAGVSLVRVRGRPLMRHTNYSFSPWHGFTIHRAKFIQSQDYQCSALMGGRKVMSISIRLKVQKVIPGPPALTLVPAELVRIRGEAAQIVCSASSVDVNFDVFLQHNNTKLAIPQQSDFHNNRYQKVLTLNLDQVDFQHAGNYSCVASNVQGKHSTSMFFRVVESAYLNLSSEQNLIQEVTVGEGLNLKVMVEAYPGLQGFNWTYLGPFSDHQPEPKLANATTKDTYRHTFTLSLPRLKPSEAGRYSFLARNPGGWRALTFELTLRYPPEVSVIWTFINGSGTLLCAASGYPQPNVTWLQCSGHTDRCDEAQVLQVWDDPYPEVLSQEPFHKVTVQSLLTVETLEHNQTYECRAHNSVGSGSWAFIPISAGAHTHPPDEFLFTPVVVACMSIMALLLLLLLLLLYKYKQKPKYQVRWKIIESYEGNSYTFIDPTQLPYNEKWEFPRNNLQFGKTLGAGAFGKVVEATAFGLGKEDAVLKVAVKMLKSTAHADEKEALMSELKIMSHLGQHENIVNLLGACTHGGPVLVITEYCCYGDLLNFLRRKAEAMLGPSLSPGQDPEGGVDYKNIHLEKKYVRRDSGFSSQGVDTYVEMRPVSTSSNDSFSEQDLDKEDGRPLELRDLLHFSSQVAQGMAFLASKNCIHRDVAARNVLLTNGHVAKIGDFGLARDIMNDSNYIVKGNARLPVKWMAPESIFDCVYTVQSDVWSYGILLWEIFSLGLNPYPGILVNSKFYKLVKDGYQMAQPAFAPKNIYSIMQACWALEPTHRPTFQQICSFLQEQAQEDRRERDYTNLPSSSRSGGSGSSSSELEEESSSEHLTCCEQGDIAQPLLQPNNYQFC
Sequence of Tyrosine-protein kinase Lyn (Homo sapiens) (P07948 2-512 limits assumed): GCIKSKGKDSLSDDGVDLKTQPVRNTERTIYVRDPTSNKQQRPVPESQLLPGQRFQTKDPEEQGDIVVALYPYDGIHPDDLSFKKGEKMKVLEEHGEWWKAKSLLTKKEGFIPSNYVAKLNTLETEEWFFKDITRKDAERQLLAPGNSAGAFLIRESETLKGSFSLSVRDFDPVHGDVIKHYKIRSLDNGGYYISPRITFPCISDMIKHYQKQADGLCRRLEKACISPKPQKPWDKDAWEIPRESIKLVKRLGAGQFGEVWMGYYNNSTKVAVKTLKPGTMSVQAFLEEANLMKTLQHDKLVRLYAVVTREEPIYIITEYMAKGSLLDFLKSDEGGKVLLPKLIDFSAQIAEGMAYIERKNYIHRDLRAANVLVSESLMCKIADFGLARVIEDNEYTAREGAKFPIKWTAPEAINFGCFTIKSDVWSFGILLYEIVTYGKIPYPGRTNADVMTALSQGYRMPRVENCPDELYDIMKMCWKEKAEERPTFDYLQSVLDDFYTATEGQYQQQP

As for `CNC(=O)c1cc(Oc2ccc(NC(=O)Nc3ccc(Cl)c(C(F)(F)F)c3)c(F)c2)ccn1`, the Activity in experiment [1] was -6%; in [2], -1%; in experiment [3], 5%; in experiment [4], 10%; in experiment [5], 11%; in experiment [6] it was 12%. For the same molecule, the Activity came out at 34% in experiment [7]; 42% in experiment [8]; 47% in [9]; 2% in experiment [10]; 53% in experiment [11]; 17% in [12]. Also, the Activity in [13] is 21%; in [14] it was 18%; in experiment [15], 66%; in experiment [16], 57%; in [17] it was 68%; in experiment [18] it was 27%. For the same molecule, the Activity amounted to 54% in experiment [19]; 64% in experiment [20]; 90% in [21]; 101% in [22]; 93% in experiment [23].
